This is an account of results in patent US5169850A, “N-(dialkylamino)methylene)-substituted pyrazolo(1,5-a)-pyrimidine-3-carboxamides and N-(dialkylamino)methylene-substituted-4,5-dihydropyrazolo-(1,5-a)-pyrimi dine-3-carboxamides” (American Cyanamid Company, priority 1991, dated 1992).

The nature of experiment [1]: Passive-Avoidance Anoxic-Induced-Amnesia Test. It is filed as in vivo, Swiss-Webster mice. Conditions: vs saline control, active if 30 percent. The text has this: Another in vivo test associated with decreased neural function in mammals is the Passive-Avoidance Anoxic-Induced-Amnesia Test. This test is used to determine the attenuation of anoxic induced amnesia in mice treated with drug, as compared to saline treated control animals with no drug.
A shock-motivated, single trial, step-through passive avoidance procedure is used. Groups of 25 Swiss-Webster, middle aged mice (9 months of age) are placed singly in the front chamber of a 2-chamber box and are allowed to voluntarily cross into the rear chamber. As soon as the mouse enters the rear chamber, a door automatically traps the animal and a mild electric shock (0.4 mA for 4 seconds) is delivered to its feet. Following the foot shock, the mice are initially placed in an anoxic environment (0 percent oxygen) for 12 seconds, which quickly induces unconsciousness. They are then placed in a hypoxic environment (15 percent oxygen) for four minutes which prolongs the oxygen deprived state, maintaining unconsciousness. All testing is performed 24 hours later, and in all cases the mice appear fully recovered from the previous anoxic/hypoxic treatment. All test compounds are administered intraperitoneally at a dose of 5-200 mg/kg, 30 minutes prior to training and testing. Control animals are injected intraperitoneally only with saline at 0.01 cc/g of body weight.
The latency to enter the rear chamber is recorded for both training and testing. Presumably, the more the animal remembers being shocked, the greater it will inhibit going into the rear chamber and the higher will be its latency to re-enter. An improvement of 30 percent over saline control scores is considered active.

For experiment [2], the system named is Brain-Specific Receptors of Rats (3H-benzodiazepine binding). The experiment is described as follows: Inhibition of the binding of 3H-benzodiazepine to brain-specific receptors of rats. More on the design: species or system rat (male albino, Wistar strain). Conditions: 3H-diazepam or 3H-flunitrazepam, rat cortex P2 fraction, pH 7.4, 30 min in ice; test concentration not given. An excerpt:
Still another test utilized for the determination of anxiolytic activity is the measurement of the ability of a test compound to inhibit the binding of tritiated benzodiazepines to brain-specific receptors of mammals. A modification of the method described by R. F. Squires, et al, Nature, 266, No. 21:732 (April, 1977) and H. Mosler, et al, Science, 198:849 (1977) was employed.
Male albino rats (Wistar strain, weighing 150-200 g each) were used. The test compounds were solubilized in N,N-dimethylformamide, acetic acid, ethanol or hydrochloric acid.
Whole cortex of rats was homogenized gently in 20 volumes of ice-cold 0.32 M sucrose, centrifuged twice at 1000 g for 10 minutes and then recentrifuged at 30,000 g for 20 minutes to produce a crude P2 -synaptosomal fraction. The P2 -fraction was either: (1) resuspended in twice the original volume in hypotonic 50 mM Tris.HCl(pH 7.4), or (2) resuspended in one-half of the original volume in hypotonic 10 mM Tris.HCL (pH 7.4) and frozen (-20° C.) until time of use. Frozen P2 preparations were thawed and resuspended in four times the original homogenizing volume at time of assay.
The binding assay consisted of 300 l of the P2 -fraction suspension (0.2-0.4 mg protein), 100 l of test drug and 100 l of 3H-diazepam 91.5 nM, final concentration) or 3H-flunitrazepam (1.0 nM, final concentration )which was added to 1.5 l of 50 mM Tris.HCl (pH 7.4). Non-specific binding controls and total binding controls received […] of diazepam ([…] final concentration) and 100 l of deionized water, respectively, in place of the test compound. Incubation for 30 minutes proceeded in ice and was terminated by filtration, under vacuum, through glass fiber filters. The filters were washed twice with 5 ml of ice-cold 50 mM Tris.HCl (pH 7.4) and placed in scintillation vials. After drying at 50°-60° C. for 30 minutes, 10 ml of diluent was added and the radioactivity determined in a scintillation counter.
Inhibition of binding was calculated by the difference between total binding and binding in the presence of test compound, divided by the total, times 100. Physiological activity can be shown by a test compound that inhibits 3H-benzodiazepine binding by 12 percent or more.

Experiment [3] in a line: Mean arterial blood pressure in spontaneously hypertensive rats. The format is in vivo, spontaneously hypertensive rats of the Okamoto strain. Conditions: gavage, 100 mg/kg or less, two doses 24 h apart, measured at 28 h; average MABP of rats 160±1.5. As to the method:
Certain of the novel compounds of the present invention are active hypotensive agents at non-toxic doses when administered to mammals. These compounds were tested for hypotensive activity by the method of P. S. Chan and D. W. Poorvin, Clinical and Experimental Hypertension, 1 (6), […] (1979). Male, 16 week old spontaneously hypertensive rats of the Okamoto strain having an average mean arterial blood pressure of 160±1.5 mm of mercury are used in the test. One to three rats are used per test compound. A rat is dosed by gavage with a test compound, suspended in 2 percent pre-boiled starch at a concentration of50 mg/ml, at a dose of 100 mg/kg of body weight or less, with 0.9 percent sodium chloride loading at a dose of 25 ml/kg of body weight. A second identical dose of the test compound, without sodium chloride loading is given 24 hours later. At 28 hours after the initial dose the mean arterial blood pressure is measured by the method of Chan and Poorvin vide supra. The procedure is repeated in a second and third rat when necessary.

Experiment [4] can be described thus: Protection against clonic seizures caused by pentylenetetrazole. It is filed as in vivo, rats. Conditions: 50 mg/kg, orally or intraperitoneally; pentylenetetrazole 23 mg/kg i.v. at 30 or 60 min. As to the method:
The anti-anxiety properties of the novel compounds of the present invention have been established in a test which indicates anxiolytic activity by the measure of protection from convulsions resulting from the administration of pentylenetetrazole. Single or graded dose levels of the test compounds were administered orally or intraperitoneally in a 2 percent starch vehicle containing 0.5 percent v/v polyethylene glycol and one drop of Polysorbate 80, or distilled water and one drop of Polysorbate 80 to groups of at least four rats. At 30 or 60 minutes, the rats were treated intravenously with pentylenetetrazole at a dose of 23 mg/kg of body weight. This dose is estimated to cause clonic seizures in 99 percent of unprotected rats. The test compounds are considered active if they protect 50 percent or more of the rats from clonic seizures.
It has been reported (R. T. Hill and D. H. Tedeschi, "Animal Testing and Screening Procedures in Evaluating Psychotropic Drugs" in "An Introduction to Psychopharmacology", pp 237-288 (Eds. R. R. Rech and K. E. Moore, Raven Press, New York, 1971)) that there is a high degree of correlation between antagonism of pentylenetetrazole seizures in rats and anti-anxiety effects in higher warm-blooded animals.

The next experiment can be described thus: Hypoxic Survival Test. The format is in vivo, Royal Hart mice. The settings on record: for % Survivors: 30 min before hypoxia, survival after 5 min. How it is done: A useful in vivo test that measures how effectively central nervous system-acting drugs enhance survival in an hypoxic environment, presumably by improving the ratio of energy supply to demand is known as the Hypoxic Survival Test. […] Drugs are tested by intraperitoneally injecting groups of mice 30 minutes prior to placing them in hypoxic mixture and measuring survival. The rationale of this test is that drugs which enhance survival under hypoxic conditions without concomitant, depression or sedative side effects, may do so by enhancing energy metabolism, or by preserving normal brain function under conditions of reduced energy metabolism. Given the dependence of the brain on a constant supply of energy, drugs which have this property may have many far-reaching therapeutic indications, including recovery from stroke and closed head injury, as well as reducing the deleterious effects of the aging central nervous system. […]
A separate group of 20 mice is injected intraperitoneally with saline solution (0.01 cc/g of body weight) and processed as described above.
Still another group of 20 mice is injected intraperitoneally with 0.125 mg/kg of physostigmine and processed as described above.

“And” between values parts separate entries of the source, which are not always exact repeats. Equal values may be shown once.

`CC(=NC(=O)c1cnn2c(-c3cccnc3)ccnc12)N(C)C` [N-((Dimethylamino)ethylidene)-7-(3-pyridinyl)pyrazolo(1,5-a)pyrimidine 3-carboxamide]: the “% Improvement” value in experiment [1] (25 mg/kg i.p.) was determined as 53%; in experiment [1] (50 mg/kg i.p.), 46%.

A word on the % Inhibition: it is the drop in the measured response relative to a control, in per cent. Low readings indicate a weak effect, high ones a strong effect. `CN(C)C=NC(=O)c1cnn2c1NCC=C2c1cccnc1` [N-((Dimethylamino)methylene)4,5-dihydro-7-(3-pyridinyl)pyrazolo(1,5-a)pyrimidine-3-carboxamide]: the “% Improvement” value in experiment [1] (50 mg/kg i.p.) is 66%; in experiment [1] (100 mg/kg i.p.) it was 54%. Also, the “% Inhibition” value in experiment [2] was 32%. Also, in experiment [3], the “MABP/mmHg (no. of rat)” value is 113 mmHg.

With `Cc1cccc(-c2ccnc3c(C(=O)N=CN(C)C)cnn23)c1` [N-((Dimethylamino)methylene) 7-(3-methylphenyl)pyrazolo(1,5-a)pyrimidine-3-carboxamide], the “% Inhibition” value in experiment [2] is listed as 65%. Besides, the “% of Rats Protected” value in experiment [4] worked out at 50%.

In the case of `Cc1cc(-c2ccccc2)n2nc(C)c(C(=O)N=CN(C)C)c2n1` [N-((Dimethylamino)methylene)-2,5-dimethyl-7-phenylpyrazolo(1,5-a)pyrimidine-3-carboxamide], the “% Survivors” value in “Hypoxic Survival Test” (100 mg/kg i.p.) turned out to be 42%.

In the case of `Cc1nn2c(-c3ccncc3)ccnc2c1C(=O)N=CN(C)C` [N-((Dimethylamino)methylene)-2-methyl-7-(4-pyridinyl)pyrazolo(1,5-a)pyrimidine-3-carboxamide], the “% Survivors” value in “Hypoxic Survival Test” (10 mg/kg i.p.) is reported as 55%. In experiment [3], the “MABP/mmHg (no. of rat)” value stood at 130 mmHg.

As for `Cc1nn2c(-c3ccccc3)ccnc2c1C(=O)N=CN(C)C` [N-((Dimethylamino)methylene)-2-methyl-7-phenylpyrazolo(1,5-a)pyrimidine-3-carboxamide], the “% Improvement” value is given as 49% in experiment [1] (5 mg/kg i.p.), 37% in experiment [1] (10 mg/kg i.p.), 66% in experiment [1] (25 mg/kg i.p.) and 66% in experiment [1] (50 mg/kg i.p.). Further, in experiment [2], the “% Inhibition” value is on record as 18%. Moreover, the “% Survivors” value in the experiment “Hypoxic Survival Test” (0.1 mg/kg i.p.) is listed as 45%; in the experiment “Hypoxic Survival Test” (10 mg/kg i.p.), 100%; in the experiment “Hypoxic Survival Test” (100 mg/kg i.p.) it was 97%; in “Hypoxic Survival Test” (200 mg/kg i.p.), 95%.

With `Cc1cnc2c(C(=O)N=CN(C)C)cnn2c1` [N-((Dimethylamino)methylene)-6-methyl-pyrazolo(1,5-a)pyrimidine-3-carboxamide], the “% Survivors” value in the experiment “Hypoxic Survival Test” (10 mg/kg i.p.) stood at 42%; in the experiment “Hypoxic Survival Test” (50 mg/kg i.p.) it was 40%; in “Hypoxic Survival Test” (100 mg/kg i.p.) it was 62%; in the experiment “Hypoxic Survival Test” (200 mg/kg i.p.), 45%.

For `CN(C)C=NC(=O)c1cnn2c(-c3cccnc3)ccnc12` [N-((Dimethylamino)methylene)-7-(3-pyridinyl)-pyrazolo(1,5-a)pyrimidine-3-carboxamide], the “% Improvement” value in experiment [1] (25 mg/kg i.p.) and in experiment [1] (50 mg/kg i.p.) was 33% each time. For the same compound, the “% Survivors” value in “Hypoxic Survival Test” (25 mg/kg i.p.) was 80% and 58% and 42%.

On to `CN(C)C=NC(=O)c1cnn2c(-c3cccc(C(F)(F)F)c3)ccnc12` [N-((Dimethylamino)methylene)-7-(3-trifluoromethyl)phenyl)pyrazolo(1,5-a)pyrimidine-3-carboxamide], for which, in experiment [2], the “% Inhibition” value stood at 82%.

Consider `CN(C)C=NC(=O)c1cnn2c(-c3ccccc3)ccnc12` [N-((Dimethylamino)methylene)-7-phenylpyrazolo(1,5-a)-pyrimidine-3-carboxamide], for which, in experiment [2], the “% Inhibition” value is on record as 28%.

For `CNC(=O)Oc1ccc2c(c1)[C@]1(C)CCN(C)[C@@H]1N2C` [physostigmine, reference compound], the “percent of physostigmine treated mice that survive” value in “Hypoxic Survival Test” (10 percent oxygen, after 5 minutes, control mice 5-20 percent, dose 0.125 mg/kg i.p.) was 60-80%.
